# Data published in article PMC2774234 (Molecular cancer research : MCR, 2009).
# System: Prx1
# Assay: Immunoblot of Prx1 after transient Prx1 siRNA transfection of LNCaP cells
# Type: cell-based, human
# Settings: 75 nM siRNA
substance,measurement,value
11838: Ambion siRNA directed against exon 6 of Prx1; sense 5'-GGCUACUGGUUUGUAUGAUTT-3' (antisense AUCAUACAAACCAGUAGCCTG; chemistry not given here) [compound 11838],expression of Prx1 (immunoblot),essentially abolished the expression of Prx1
